In patent US7892350B2, “Sacrificial agents for fly ash concrete” (Boral Material Technologies Inc., priority 2003, dated 2011):
Like-named read-outs stand apart in the source and are kept apart here.

Experiment: Second sacrificial agent testing protocol: paste air measurements with DDBS (0.0125 wt %) and rating; for Overall performance rating (second protocol rating): key: 0: Fail; 1: Poor; 2: Good; 3: Preferred; 4: Most preferred; for SA Rating (0-4): key: 0: Fail; 1: Poor; 2: Good; 3: Preferred; 4: Most preferred
Description: The second sacrificial agents evaluation protocol has been designed to assess the relative potential value of candidate sacrificial agents with a maximum of five paste air measurements.
The first two measurements (of entrained air) are carried out with a standard AEA in a portland cement paste and in a FA:cement paste; these two tests provide reference values which can be used for the relative assessment of a series of sacrificial agents. The other three paste air measurements pertain to the properties and effectiveness of the sacrificial agents.
1. Measurement of the air entrained by a standard air-entraining admixture in a cement paste of fixed composition and fluidity; the latter is a reference system which provides ‘reference’ air entrainment values (‘A’ in FIG. 8).
2. […] The difference between ‘B’ and ‘A’ in FIG. 8 is the reduction in air entrainment due to the presence of the fly ash; this is illustrated as ‘C’ in FIG. 8.
In the present SA testing and evaluation protocol, the fly ash selected should remain the same for the entire set of additives tested, in order to provide reliable relative performance ranking. For the present series of test, the Fly Ash selected was the one identified as B1 in Table 1 below; the physico-chemical properties of this fly ash are reported in Table 1.
In testing for the relative performance of the sacrificial agent, the sacrificial agent dosage was chosen in the range 0-0.1 wt %, which corresponds to typical dosage values observed in paste, mortar and concrete tests reported in Tables 2, 3 and 4 and Tables 7 to 34.
3. Measurement of the air entrainment of the SA, by itself, in a cement-only paste at a dosage of 0.1 wt %; this is illustrated as ‘D’ in FIG. 8.
4. Measurement of the air entrained by DDBS in the FA-cement paste comprising 0.05% wt SA, under the same conditions as described in 2 above. The air entrainment value observed in this system, compared to that observed in the absence of the SA, yields the air recovery due to the SA, and is illustrated schematically as ‘E’ in FIG. 8.
5. Same as in 4 above, but with a higher SA concentration at 0.1 wt %; the air entrainment observed, again compared to the value observed in the absence of the SA, yields a second value of air recovery by the SA and is illustrated as ‘F’ in FIG. 8.
For the relative performance rating of the group of products chosen as potential SA and listed in Table 36, the following rating scheme (Tables A and B) was adopted (referring to FIG. 8 and quantities defined therein):
1: Chemical name of compound tested as potential sacrificial agent • Col. 2: Level of air entrainment by the candidate sacrificial agent, at a concentration of 0.1 wt %, in a Portland cement paste ([…]) • Col. […] 5: Sacrificial agent overall rating index (described below) • Col. 6: Hydrophilic-Lipophilic Balance (HLB) values of candidate sacrificial agent (source and significance of HLB data given below) • Col. 7: Logarithm of the Oil(octanol)/water partition coefficient (Kow) of the candidate sacrificial agents (source and significance of data given below).

[1] = Portland cement paste (PCA), […]
[2] = sacrificial agent overall rating index
[3] = B1 FA/cement paste, 0.0125 wt % DDBS, 0.05 wt % SA
[4] = B1 FA/cement paste, 0.0125 wt % DDBS, 0.10 wt % SA
[5] = sum of ratings of air entrainment recovery by 0.05% and 0.1% SA, DDBS 0.0125 wt %, 50:50 B1 fly ash:cement paste

Row | Molecule | B1 + 0.0125% DDBS + 0.05% SA (air entrainment) (B1 FA/cement paste, […]) | B1 + 0.0125% DDBS + 0.1% SA (air entrainment) (B1 FA/cement paste, […]) | PCA + 0.1% SA (level of air entrainment by the candidate sacrificial agent) [1] | SA Rating (0-4) [2] | Overall performance rating (second protocol rating) | other results
1 | CC(O)CO (centres unmarked) [Propylene Glycol] | 3.0 | 3.6 | 0.5 | 0 | – | –
2 | CC1COC(=O)O1 (centres unmarked) [Propylene carbonate] | – | – | 0.4 | 0 | – | B1 + 0.0125% DDBS + 0.05% SA (air entrainment) [3]: 2.5; B1 + 0.0125% DDBS + 0.1% SA (air entrainment) [4]: 2.9
3 | O=C([O-])c1ccccc1O.[Na+] [Sodium Salicylate] | – | – | – | – | – | B1 + 0.0125% DDBS + 0.05% SA (air entrainment): 2.9; B1 + 0.0125% DDBS + 0.1% SA (air entrainment): 3.0; PCA + 0.1% SA (level of air entrainment by the candidate sacrificial agent): 0.4; SA Rating (0-4): 0
4 | O=P([O-])([O-])O.[Na+].[Na+] [Sodium phosphate dibasic] | – | – | 0.0 | 0 | – | B1 + 0.0125% DDBS + 0.05% SA (air entrainment) [3]: 2.1; B1 + 0.0125% DDBS + 0.1% SA (air entrainment) [4]: 2.3
5 | O=P(O)(O)OP(=O)(O)OP(=O)(O)O [Sodium tripolyphosphate] | – | – | 0.2 | 0 | – | B1 + 0.0125% DDBS + 0.05% SA (air entrainment) [3]: 2.2; B1 + 0.0125% DDBS + 0.1% SA (air entrainment) [4]: 1.9
6 | OC[C@@H](O)[C@@H](O)[C@H](O)[C@@H](O)CO [Sorbitol] | 2.2 | 4.2 | 0.5 | 1 | 1 | –
7 | CCCC[N+](CCCC)(CCCC)CCCC.[Cl-] [Tetrabutyl ammonium chloride] | – | – | – | – | 3 | B1 + 0.0125% DDBS + 0.05% SA (air entrainment): 4.9; B1 + 0.0125% DDBS + 0.1% SA (air entrainment): 4.1; PCA + 0.1% SA (level of air entrainment by the candidate sacrificial agent): 0.6; SA Rating (0-4): 3
8 | CC[N+](CC)(CC)CC.[OH-] [Tetraethyl ammonium hydroxide] | – | – | – | – | – | B1 + 0.0125% DDBS + 0.05% SA (air entrainment): 2.3; B1 + 0.0125% DDBS + 0.1% SA (air entrainment): 3.0; PCA + 0.1% SA (level of air entrainment by the candidate sacrificial agent): 0.1; SA Rating (0-4): 0
9 | CC(O)CN(CC(C)O)CC(C)O (centres unmarked) [Tri-iso-propanolamine] | – | – | – | – | 4 | –
10 | CC(O)CN(CC(C)O)CC(C)O (centres unmarked) [Tri-isopropanolamine] | 5.6 | 7.6 | 1.3 | 4 | – | –
11 | CCN(CC)CC [Triethylamine] | – | – | – | – | 4 | B1 + 0.0125% DDBS + 0.05% SA (air entrainment): 5.2; B1 + 0.0125% DDBS + 0.1% SA (air entrainment): 5.1; PCA + 0.1% SA (level of air entrainment by the candidate sacrificial agent): 0.5; SA Rating (0-4): 4
12 | CCCN(CCC)CCC [Tripropylamine] | 2.6 | 2.4 | 0.3 | 0 | – | –
13 | NC(N)=O [Urea] | – | 2.0 | 0.1 | 2 | 2 | –
14 | CC(C)O [i-Propanol] | 3.7 | 4.1 | 2.4 | 1 | 1 | –
15 | CCCO [n-Propanol] | – | – | – | – | 1 | B1 + 0.0125% DDBS + 0.05% SA (air entrainment): 3.5; B1 + 0.0125% DDBS + 0.1% SA (air entrainment): 4.4; PCA + 0.1% SA (level of air entrainment by the candidate sacrificial agent): 2.0; SA Rating (0-4): 1
16 | C=CN1CCCC1=O [n-Vinyl-2-pyrrolidinone] | 3.7 | 4.3 | 2.8 | 1 | 1 | –

Row | Molecule | B1 + 0.0125% DDBS + 0.05% SA (air entrainment) (B1 FA/cement paste, […]) | B1 + 0.0125% DDBS + 0.1% SA (air entrainment) (B1 FA/cement paste, […]) | PCA + 0.1% SA (level of air entrainment by the candidate sacrificial agent) [1] | SA Rating (0-4) [2] | Overall performance rating (second protocol rating) | other results
17 | CCCCN [n-butyl amine] | 5.7 | 8.1 | 1.2 | 4 | 4 | –
18 | CCCCNC(N)=O [n-butyl urea] | – | – | 2.1 | 4 | – | B1 + 0.0125% DDBS + 0.05% SA (air entrainment) [3]: 5.3; B1 + 0.0125% DDBS + 0.1% SA (air entrainment) [4]: 7.5; Overall performance rating (second protocol rating) [5]: 4
19 | COc1ccc(OC)cc1 [p-Dimethoxybenzene] | 4.7 | 4.0 | 0.7 | 2 | 2 | –
20 | Cc1ccc(S(=O)(=O)O)cc1 [p-Toluene Sulfonic acid] | 3.9 | 5.1 | 0.7 | 3 | 3 | –
21 | CC(C)(C)O [t-Butanol] | – | – | – | – | 4 | –
22 | CC(C)(C)O [tert-Butanol] | 6.3 | 7.0 | 0.8 | 4 | – | –
23 | OCCOCCOCCO [tri-Ethylene Glycol] | 3.1 | 4.1 | 0.9 | 1 | 1 | –
24 | CC(O)COC(C)COC(C)CO (centres unmarked) [tri-Propylene glycol] | 7.8 | 9.2 | 1.6 | 4 | 4 | –
25 | Aniline (Phenylamine) | 3.7 | 5.6 | 1.7 | 2 | – | –
26 | Methylnaphthalene sulfonate Na | – | – | – | – | – | Overall performance rating (second protocol rating) [5]: 4
27 | P(EG-ran-propylene-glycol) 2500 | – | – | – | – | 4 | –
28 | POE (20) Sorbitan monolaurate [Tween®] | – | – | – | – | – | Overall performance rating (second protocol rating) [5]: 4
29 | Polyethylene glycol 400 | – | – | – | – | – | Overall performance rating (second protocol rating) [5]: 4
30 | Polyethylene glycol 2000 | – | – | – | – | – | Overall performance rating (second protocol rating) [5]: 4
31 | Polypropylene glycol 425 | – | – | – | – | – | Overall performance rating (second protocol rating) [5]: 4
32 | Tetramethyl ammonium hydroxide | – | – | – | – | – | B1 + 0.0125% DDBS + 0.05% SA (air entrainment): 2.5; B1 + 0.0125% DDBS + 0.1% SA (air entrainment): 2.9; PCA + 0.1% SA (level of air entrainment by the candidate sacrificial agent): 0.1; SA Rating (0-4): 0
